Measurements published in the supplement of paper PMC9663587.

Key:
[1] = compound: CN1CC[C@H](c2c(O)cc(O)c3c(=O)cc(-c4ccccc4Cl)oc23)[C@H](O)C1 [Flavopiridol]; test: GR value, 72 h; higher = faster growth (1 = untreated, <0 = killing);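 also: breast cancer and non-malignant breast epithelial lines, nine half-log doses, viable cells counted by Hoechst and LIVE/DEAD dye imaging versus time-zero plates and DMSO controls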
[2] = compound: C=CC(=O)Nc1ccc(C(=O)Nc2[nH]nc3c2CN(C(=O)N[C@H](CN(C)C)c2ccccc2)C3(C)C)cc1 [YKL-5-124]; test: as above
[3] = compound: CCc1cnn2c(NCc3ccc[n+]([O-])c3)cc(N3CCCC[C@H]3CCO)nc12; test: as above
[4] = compound: CN(C)C/C=C/C(=O)Nc1ccc(C(=O)N2CCC[C@@H](Nc3ncc(Cl)c(-c4c[nH]c5ccccc45)n3)C2)cc1 [THZ531]; test: as above
[5] = compound: CN(C)C(=O)c1cc2cnc(Nc3ccc(N4CCNCC4)cn3)nc2n1C1CCCC1 [LEE011/Ribociclib]; test: as above
[6] = compound: CCN1CCN(Cc2ccc(Nc3ncc(F)c(-c4cc(F)c5nc(C)n(C(C)C)c5c4)n3)nc2)CC1; test: as above
[7] = compound: CC(=O)c1c(C)c2cnc(Nc3ccc(N4CCNCC4)cn3)nc2n(C2CCCC2)c1=O; test: as above
[8] = compound: CN(C)C/C=C/C(=O)Nc1ccc(C(=O)Nc2cccc(Nc3ncc(Cl)c(-c4c[nH]c5ccccc45)n3)c2)cc1 [THZ1]; test: as above
[9] = compound: O=C(CCCCCCC(=O)Nc1ccccc1)NO [Vorinostat]
[10] = compound: CC1(CCN(CC1)C2=CN=C(C(=N2)N)C3=C(C(=CC=C3)Cl)Cl)N [SHP099]
[11] = compound: CCc1cnn2c(NCc3ccc[n+]([O-])c3)cc(N3CCCC[C@H]3CCO)nc12
[12] = compound: Nc1cc(C(F)(F)F)c(-c2cc(N3CCOCC3)nc(N3CCOCC3)n2)cn1 [Buparlisib/NVP-BKM120]
[13] = compound: CC(=O)O[C@H]1C(=O)[C@@]2(C)[C@H]([C@H](OC(=O)c3ccccc3)[C@]3(O)C[C@H](OC(=O)[C@H](O)[C@@H](NC(=O)c4ccccc4)c4ccccc4)C(C)=C1C3(C)C)[C@]1(OC(C)=O)CO[C@@H]1C[C@@H]2O [Paclitaxel]
[14] = compound: CC(=O)c1c(C)c2cnc(Nc3ccc(N4CCN(CCOCCOCCOCCNC(=O)COc5cccc6c5C(=O)N(C5CCC(=O)NC5=O)C6=O)CC4)cn3)nc2n(C2CCCC2)c1=O [BSJ-03-123]
[15] = compound: CCN1CCN(Cc2ccc(Nc3ncc(F)c(-c4cc(F)c5nc(C)n(C(C)C)c5c4)n3)nc2)CC1
[16] = compound: COc1cc2nccc(Oc3ccc(NC(=O)C4(C(=O)Nc5ccc(F)cc5)CC4)cc3)c2cc1OC [Cabozantinib]
[17] = compound: NC1(C(=O)N[C@@H](CCO)c2ccc(Cl)cc2)CCN(c2nc[nH]c3nccc2-3)CC1 [AZD5363]
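For GR50, 72 h in this document: breast cancer and non-malignant breast epithelial cell lines, Deep Dye Drop or Dye Drop imaging, nine half-log doses, GR normalized to time-zero plates and DMSO-only controls.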

Cell Line: BT20
- GR value ([1]; 0.0001 µM): 0.987 GR
- GR value ([1]; 0.0003162 µM): 0.946 GR
- GR value ([1]; 0.001 µM): 0.999 GR
- GR value ([1]; 0.003162 µM): 0.931 GR
- GR value ([1]; 0.01 µM): 0.993 GR
- GR value ([1]; 0.03162 µM): 0.835 GR
- GR value ([1]; 0.1 µM): 0.593 GR
- GR value ([1]; 0.3162 µM): -0.0024 GR
- GR value ([1]; 1 µM): -0.639 GR
- GR value ([2]; 0.001 µM): 0.835 GR
- GR value ([2]; 0.003162 µM): 0.664 GR
- GR value ([2]; 0.01 µM): 0.432 GR
- GR value ([2]; 0.03162 µM): 0.395 GR
- GR value ([2]; 0.1 µM): 0.219 GR
- GR value ([2]; 0.3162 µM): 0.229 GR
- GR value ([2]; 1 µM): 0.13 GR
- GR value ([2]; 3.162 µM): 0.0428 GR
- GR value ([2]; 10 µM): -0.116 GR
- GR value ([3]; 0.0001 µM): 0.951 GR
- GR value ([3]; 0.0003162 µM): 1.01 GR
- GR value ([3]; 0.001 µM): 0.998 GR
- GR value ([3]; 0.003162 µM): 1.1 GR
- GR value ([3]; 0.01 µM): 0.929 GR
- GR value ([3]; 0.03162 µM): -0.235 GR
- GR value ([3]; 0.1 µM): -0.645 GR
- GR value ([3]; 0.3162 µM): -0.672 GR
- GR value ([3]; 1 µM): -0.698 GR
- GR value ([4]; 0.0001 µM): 1 GR
- GR value ([4]; 0.0003162 µM): 0.93 GR
- GR value ([4]; 0.001 µM): 0.967 GR
- GR value ([4]; 0.003162 µM): 0.988 GR
- GR value ([4]; 0.01 µM): 1.09 GR
- GR value ([4]; 0.03162 µM): 1 GR
- GR value ([4]; 0.1 µM): 0.927 GR
- GR value ([4]; 0.3162 µM): 0.907 GR
- GR value ([4]; 1 µM): 0.647 GR
- GR value ([5]; 0.001 µM): 0.818 GR
- GR value ([5]; 0.003162 µM): 0.759 GR
- GR value ([5]; 0.01 µM): 0.624 GR
- GR value ([5]; 0.03162 µM): 0.672 GR
- GR value ([5]; 0.1 µM): 0.651 GR
- GR value ([5]; 0.3162 µM): 0.49 GR
- GR value ([5]; 1 µM): 0.463 GR
- GR value ([5]; 3.162 µM): 0.384 GR
- GR value ([5]; 10 µM): 0.0703 GR
- GR value ([6]; 0.001 µM): 0.933 GR
- GR value ([6]; 0.003162 µM): 0.9 GR
- GR value ([6]; 0.01 µM): 0.69 GR
- GR value ([6]; 0.03162 µM): 0.489 GR
- GR value ([6]; 0.1 µM): 0.331 GR
- GR value ([6]; 0.3162 µM): 0.264 GR
- GR value ([6]; 1 µM): 0.231 GR
- GR value ([6]; 3.162 µM): 0.163 GR
- GR value ([6]; 10 µM): -0.21 GR
- GR value ([7]; 0.0003162 µM): 1.07 GR
- GR value ([7]; 0.001 µM): 1.09 GR
- GR value ([7]; 0.003162 µM): 0.956 GR
- GR value ([7]; 0.01 µM): 0.809 GR
- GR value ([7]; 0.03162 µM): 0.567 GR
- GR value ([7]; 0.1 µM): 0.36 GR
- GR value ([7]; 0.3162 µM): 0.24 GR
- GR value ([7]; 1 µM): 0.203 GR
- GR value ([7]; 3.162 µM): 0.156 GR
- GR value ([8]; 0.0001 µM): 0.946 GR
- GR value ([8]; 0.0003162 µM): 1.04 GR
- GR value ([8]; 0.001 µM): 1 GR
- GR value ([8]; 0.003162 µM): 1.02 GR
- GR value ([8]; 0.01 µM): 1.03 GR
- GR value ([8]; 0.03162 µM): 1.01 GR
- GR value ([8]; 0.1 µM): 1.01 GR
- GR value ([8]; 0.3162 µM): 0.807 GR
- GR value ([8]; 1 µM): -0.409 GR
- GR50, 72 h [9]: 2.22 µM
- GR50, 72 h [10]: > 10 µM
- GR50, 72 h [11]: 0.0185 µM
- GR50, 72 h [12]: 0.638 µM
- GR50, 72 h [13]: 0.00202 µM
- GR50, 72 h [14]: 0.386 µM
- GR50, 72 h [15]: 0.0613 µM
- GR50, 72 h [16]: 5.35 µM
- GR50, 72 h [17]: 2 µM
